From patent US20020115728A1, “Compositions and methods for treating cardiovascular disorders” (priority 2000, published 2002) come the findings set out here.

For assay [1], the system named is plasma lipids obtained from apoE−/− mice. Kind of assay: Ex vivo oxidizability of plasma lipids (aqueous peroxyl radical generator). It counts as in vivo. Particulars: pooled plasma of probucol-treated apoE−/− mice, 5 mM MPH, 37° C. The method, then: Pooled plasma obtained from control (open symbols) or probucol-treated (closed symbols) mice was exposed to 5 mM of the aqueous peroxyl radical generator MPH and incubated under air at 37° C. […] Data shown are mean±SD of a single oxidation experiment performed in triplicate using pooled plasma. Where error bars are not shown, error is smaller than the symbol.
Plasma was obtained from control and probucol mice and aliquots frozen for subsequent determination of lipids. Separate aliquots were acidified with metaphosphoric acid (5%) to stabilize vitamin C prior to freezing and storage at −80° C. The remainder was pooled appropriately and used for ex vivo oxidation initiated by the peroxyl radical generator AAPH and lipoprotein separation by FPLC with UV280nm detection, as described in J Lipid Res. 1999;40:1104-1112.
Enhanced resistance of plasma lipoproteins to oxidation is often used as a measure of antioxidant efficacy. Therefore, we examined MPH-induced oxidation of pooled plasma from control and treated animals. […] These observations can be explained readily on the basis of tocopherol-mediated peroxidation.

In the next assay the test system is α-tocopheroxyl radical. Kind of assay: Tocopheroxyl radical attenuating ability (TRAA). It counts as biochemical. Particulars: kobs with (+) or without (−) test compound.
Assay [2] deals with atherosclerosis in apoE−/−;LDLr−/− mice. Kind of assay: Evaluation of atherosclerosis (intima volume, descending thoracic aorta). It counts as in vivo. Conditions: bisphenol for 14 weeks. The method, then: Aortic lesions were assessed in segments centered around the third pair of intercostal artery branches in the descending thoracic aorta. Briefly, the fixed aortas were dehydrated in ethanol, cleared with xylene and embedded in paraffin. Serial sections (10 in total; each 2-3 μm thick and 100 μm apart) were cut and stained using Weigerts hematoxylin-van Gieson. Aortic thickening was assessed as the total volume of intima in the segment investigated in bisphenol-treated versus control samples.
Aortic volumes were determined by planimetry, using a Lucivid device (MicroBrightField, Colchester, Vermont, […]) attached to a Leitz DRM microscope that allowed the superposition of a computer monitor onto the cross sectional image.

The subject of assay [3] is atherosclerotic lesions in apoE−/− mice. Kind of assay: Atherosclerotic lesion cross-section areas at four aortic sites (morphometry). It counts as in vivo. The method, then:
Male C57BL/6J mice, homozygous for the disrupted apoE gene (apoE−/−) were fed standard chow (Lab-Feed, Sydney, Australia) until aged 10 weeks. […] The high fat diet (control and probucol-supplemented) was prepared, according to the specifications of the Harlan Teklad diet TD88137. […]
Lesions were assessed at four different sites along the aorta, in the aortic root, in the aortic arch, the descending thoracic and in the proximal abdominal aorta, and cross-sections (2-3 μm thick) were prepared and stained with Weigert's hematoxylin-van Gieson.

Another assay deals with aortas of apoE−/− mice. As to the kind of experiment: Aortic lipids, oxidised lipids and antioxidants by HPLC of aortic homogenates. It counts as in vivo. Particulars: 24 weeks. The method, then: Male C57BL/6J mice, homozygous for the disrupted apoE gene (apoE−/−) were fed standard chow (Lab-Feed, Sydney, Australia) until aged 10 weeks. […] The high fat diet (control and probucol-supplemented) was prepared, according to the specifications of the Harlan Teklad diet TD88137.
After bleeding, mice were gravity-perfused for 5 min with DPBS containing 20 μM BHT and 1 mM EDTA (Buffer A) and aortas removed as described in Letters J M, et al (1999). Briefly, hearts, ascending and descending aortas (past the femoral junction) were excised and carefully cleaned. […] Once cleaned, aortas were separated from the heart taking care to include all aortic material while avoiding heart tissue. To obtain sufficient material for HPLC analysis (i.e., 30-40 mg wet weight tissue) it was necessary to pool 7-8 aortas. Separate pools of aortas were prepared for both groups and then immediately frozen in Buffer A and stored at −80° C. until analyses.
Pooled aortas were snap frozen in liquid nitrogen, pulverised, resuspended in Buffer A, homogenised and then either treated with metaphosphoric acid (for ascorbate) or extracted and the hexane fraction analysed for lipid-soluble antioxidants, cholesterol (C), choleseteryl esters (CE), lipid hydroperoxides (LOOH) and cholesteryl ester hydroxides (CE-OH) by HPLC as described in Methods Enzymol. 1994;233:469-489. LOOH and CE-OH were measured as markers of lipoprotein lipid oxidation, as they are the primary and major oxidation products formed when lipoproteins from apoE−/− mice undergo oxidation. […] All compounds were quantified by peak area comparison with authentic standards, and protein determined.
ApoE−/− mice were fed either a control or probucol-supplemented diet for 24 weeks before aortas and plasma were analysed.

The mark [4] stands for this setting: apoE−/− mice, 1% probucol, 24 weeks.
The mark [5] stands for this setting: lipid-standardised oxidised lipids, 1% probucol.

Structures are written as SMILES. Marks after values point to notes of the source that are not given here.

Consider `CC(C)(C)c1cc(-c2cc(C(C)(C)C)c(O)c(C(C)(C)C)c2)cc(C(C)(C)C)c1O` [Bisphenol, bisphenol], for which the “fate of the compound present in plasma during the oxidation period” value in assay [1] was “oxidised into diphenoquinone”. Moreover, the “TRAA (decay of tocopheroxyl radical; kobs(+)/kobs(−))” value in the assay with α-tocopheroxyl radical is “Immediate decay”. In addition, the “lesion size (intimal volume, descending thoracic aorta) vs age-matched controls” value in assay [2] is given as “substantially decreased”.

Take `CC(C)(Sc1cc(C(C)(C)C)c(O)c(C(C)(C)C)c1)Sc1cc(C(C)(C)C)c(O)c(C(C)(C)C)c1` [Probucol, probucol]: in assay [3] (setting [4]), the “lesion formation at the abdominal aorta” value is listed as “effectively prevented lesion formation”; the “lesions in the aortic arch and descending thoracic aorta vs control” value is on record as “significantly smaller”. For the same compound, the “lesion cross-section area, Aortic Root” value in assay [3] (apoE−/− mice, high fat diet with 1% (w/w) probucol, 24 weeks, aortic root) turned out to be 1180 μm^2 × 10^−3. Besides, the “lesion cross-section area, Abdominal Aorta” value in assay [3] (apoE−/− mice, high fat diet with 1% probucol, 24 weeks, abdominal aorta) is 12 ± 12(3) μm^2 × 10^−3. Besides, the “lesion cross-section area, Arch” value in assay [3] (apoE−/− mice, high fat diet with 1% probucol, 24 weeks, aortic arch) stood at 140 ± 34 μm^2 × 10^−3. For the same compound, in assay [3] (apoE−/− mice, high fat diet with 1% probucol, 24 weeks, descending thoracic aorta), the “lesion cross-section area, Descending Thoracic Aorta” value is recorded as “*5 ± 4 (8)* μm^2 × 10^−3”. The “Treatment effect on lesion area, Abdominal Aorta” value in assay [3] (probucol vs controls, abdominal aorta) is recorded as 10%. For the same compound, in assay [3] (probucol vs controls, aortic arch), the “Treatment effect on lesion area, Arch” value turned out to be 44%. For the same compound, in assay [3] (probucol vs controls, aortic root), the “Treatment effect on lesion area, Aortic Root” value stood at 146%. Besides, the “Treatment effect on lesion area, Descending Thoracic Aorta” value in assay [3] (probucol vs controls, descending thoracic aorta) turned out to be 15%. The “effect on aortic content of lipid standardised oxidized lipids” value in the assay on aortas of apoE−/− mice (1% probucol) is given as “did not affect”. In the assay with aortas of apoE−/− mice (1% probucol, aorta), the “Aorta Ascorbate” value is listed as 322 ± 320 pmol/mgp, the “Aorta C18:2” value is reported as 12 ± 6 nmol/mgp, the “Aorta C20:4” value was 4.0 ± 2 nmol/mgp and the “Aorta CE-OH” value was found to be 0.17 ± 0.08 nmol/mgp. Besides, in the assay on aortas of apoE−/− mice (1% probucol, aorta), the “Aorta LOOH” value worked out at 0.080 nmol/mgp, the “Aorta Total coenzyme Q” value is given as 139 ± 57 pmol/mgp, the “Aorta Ubiquinone-9” value was determined as 114 ± 47 pmol/mgp and the “Aorta Ubiquinone-10” value stood at 25 ± 10 pmol/mgp. In the assay on aortas of apoE−/− mice (1% probucol, aorta), the “Aorta α-Tocopherol” value was determined as 380 pmol/mgp and the “Aorta α-Tocopherylquinone” value worked out at 30 ± 2 pmol/mgp. In addition, the “Aorta C (cholesterol)” value in the assay on aortas of apoE−/− mice (high fat diet with 1% probucol, aorta) is 173 ± 60 nmol/mgp. Further, in the assay with aortas of apoE−/− mice (setting [5]), the “Aortic CE-OH/LH (× 10^3)” value is given as 12.5 ± 6.7 × 10^3 and the “Aortic LOOH/LH (× 10^3)” value was 4.4^a × 10^3. In the assay with aortas of apoE−/− mice (per protein, 1% probucol), the “decrease of aortic concentration of C vs controls” value worked out at 5.6 fold, the “decrease of aortic concentration of total CoQ vs controls” value worked out at 2.5 fold and the “decrease of aortic concentration of vitamin E vs controls” value stood at 2.9 fold. The “fate of the compound present in plasma during the oxidation period” value in assay [1] is reported as “remained unchanged”. For the same compound, the “onset and initial rate of CE-O(O)H accumulation vs control plasma” value in assay [1] (air) is “delayed and decreased”.
